{"source": "patent US20130280204A1", "about": "(priority 2007, published 2013)", "key": {"TKY Wild-type": {"system": "TKY Wild-type", "format": "cell-based, influenza A virus H4N2", "settings": "read-out: IC50 (nM, based on ZA) Wild-type"}, "[1]": {"system": "A/Nanchang/933/95 (Nanchang) virus", "design": "species or system ferrets", "settings": "in vivo"}, "TKY Drug-free p23 (DF23)": {"system": "TKY Drug-free p23 (DF23)", "format": "cell-based, influenza A virus H4N2", "settings": "read-out: IC50 (nM, based on ZA) Drug-free p23"}, "WSN strain": {"system": "WSN strain", "design": "species or system Balb/C mice", "settings": "mouse, in vivo"}, "[2]": {"system": "avian strain A/Turkey/MN/80 (TKY)", "format": "cell-based, influenza A virus H4N2"}, "[3]": {"biological_target": "viral NA of TKY Wild-type (Influenza A virus (A/turkey/Minnesota/833/1980(H4N2)), UniProt Q20NP0)", "sequence (Q20NP0 whole entry, looked up)": "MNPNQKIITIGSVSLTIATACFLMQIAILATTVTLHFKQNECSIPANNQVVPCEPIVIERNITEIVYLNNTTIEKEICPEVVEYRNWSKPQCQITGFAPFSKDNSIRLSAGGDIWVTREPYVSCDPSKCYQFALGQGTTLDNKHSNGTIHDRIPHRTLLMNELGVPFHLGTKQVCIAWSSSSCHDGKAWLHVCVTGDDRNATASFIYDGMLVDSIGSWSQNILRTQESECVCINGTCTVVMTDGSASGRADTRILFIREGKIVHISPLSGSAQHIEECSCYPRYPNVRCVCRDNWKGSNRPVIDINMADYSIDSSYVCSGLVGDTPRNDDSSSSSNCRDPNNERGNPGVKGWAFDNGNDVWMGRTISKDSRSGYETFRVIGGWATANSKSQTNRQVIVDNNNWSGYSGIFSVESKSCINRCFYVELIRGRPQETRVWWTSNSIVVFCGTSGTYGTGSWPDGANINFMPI", "format": "biochemical", "settings": "read-out: Ki (nM, based on ZA) Wild-type"}, "[4]": {"system": "human influenza A/Wuhan/359/95 (Wuhan)", "test": "microbe, parasite or virus in culture", "format": "cell-based, influenza A virus H3N2"}, "[5]": {"system": "avian influenza A/turkey/MN/833/80 (TKY)", "test": "microbe, parasite or virus in culture", "format": "cell-based, influenza A virus H4N2"}, "[6]": {"biological_target": "viral NA of TKY Drug-free p23 (DF23) (Influenza A virus (A/turkey/Minnesota/833/1980(H4N2)), UniProt Q20NP0)", "sequence (Q20NP0 whole entry, looked up)": "as above", "format": "biochemical", "settings": "read-out: Ki (nM, based on ZA) Drug-free p23"}, "active site of NA": {"biological_target": "active site of NA", "settings": "read-out: affinity constant for the active site of NA; cited from earlier work"}, "influenza A/WSN/33 (WSN)": {"system": "influenza A/WSN/33 (WSN)", "test": "microbe, parasite or virus in culture", "format": "cell-based, influenza A virus H1N1", "settings": "read-out: IC50 (nM 1) WSN"}, "TKY virus": {"system": "TKY virus", "format": "cell-based, influenza A virus H4N2", "settings": "t=15 min"}}, "note": "Read-outs that look alike come from different tables or passages of the source."}
{"smiles": "CC(=O)N[C@H]1[C@H]([C@H](O)[C@H](O)CO)OC(C(=O)O)=C[C@@H]1N=C(N)N", "note": "[compound 1, zanamivir]", "values": [{"measurement": "IC50", "setting": "TKY Wild-type", "value": "56 ± 8", "unit": "nM"}, {"measurement": "reduction in nasal wash viral titer compared to PBS controls, day 4 p.i.", "setting": "[1]", "value": "did not"}, {"measurement": "reduction in nasal wash viral titer compared to PBS controls, day 6 p.i.", "setting": "[1]", "value": "did not"}, {"measurement": "reduction in nasal wash viral titer compared to PBS-treated group, day 2 p.i.", "setting": "[1]", "value": 38, "unit": "fold"}, {"measurement": "IC50", "setting": "TKY Drug-free p23 (DF23)", "value": "38 ± 31", "unit": "nM"}, {"measurement": "drop of viral titers in lung homogenates vs untreated mice", "setting": "WSN strain", "value": 20, "unit": "fold"}, {"measurement": "change of potency (IC50), early and late vs late only", "setting": "[2]", "value": "remained the same"}, {"measurement": "Ki", "setting": "[3]", "value": "5.3 ± 0.4", "unit": "nM"}, {"measurement": "IC50", "setting": "[4]; H3N2, read-out: IC50 (nM Sugar) Wuhan (H3N2)", "value": 20000, "unit": "nM"}, {"measurement": "IC50", "setting": "[5]; H4N2, read-out: IC50 (nM Sugar) Turkey/WT (H4N2)", "value": 20000, "unit": "nM"}, {"measurement": "Ki", "setting": "[6]", "value": "8.8 ± 5.6", "unit": "nM"}, {"measurement": "Kd", "setting": "active site of NA", "value": "0.0001 to 0.001", "unit": "µM"}]}
{"smiles": "CC(=O)NC1C(NC(=N)N)C=C(C(=O)O)OC1C(OC(=O)Nc1ccc(CN)cc1)C(O)CO", "note": "(stereo not shown) [compound 4, 3-Acetamido-2-(1-(((4-(aminomethyl)phenyl)carbamoyl)oxy)-2,3-dihydroxypropyl)-4-guanidino-3,4-dihydro-2H-pyran-6-carboxylic acid]", "values": [{"measurement": "IC50", "setting": "[4]; read-out: IC50 (nM 1) Wuhan", "value": 840000, "unit": "nM"}, {"measurement": "IC50", "setting": "influenza A/WSN/33 (WSN)", "value": 76000, "unit": "nM"}, {"measurement": "IC50", "setting": "[5]; read-out: IC50 (nM 1) TKY", "value": "2.3e+06", "unit": "nM"}]}
{"smiles": "NC12CC3CC(CC(C3)C1)C2", "note": "[amantadine]", "values": [{"measurement": "viral particles inside the cells", "setting": "TKY virus", "value": "accumulation of viral particles inside the cells"}]}
{"smiles": "CC(=O)NC1C(NC(=N)N)C=C(C(=O)O)OC1C(OC(=O)NCCOCCN)C(O)CO", "note": "(stereo not shown) [compound 3, 3-Acetamido-2-(1-(((2-(2-aminoethoxy)ethyl)carbamoyl)oxy)-2,3-dihydroxypropyl)-4-guanidino-3,4-dihydro-2H-pyran-6-carboxylic acid]", "values": [{"measurement": "IC50", "setting": "[4]; read-out: IC50 (nM 1) Wuhan", "value": "1.3e+06", "unit": "nM"}, {"measurement": "IC50", "setting": "influenza A/WSN/33 (WSN)", "value": 57000, "unit": "nM"}, {"measurement": "IC50", "setting": "[5]; read-out: IC50 (nM 1) TKY", "value": "1.4e+06", "unit": "nM"}]}
